# Patent US10174067B2, “Type of cytidine derivative and application thereof” (priority 2014, dated 2019)
# Marks after values point to notes of the source that are not given here.
# Assays:
# [1] = How it was run: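 Test compounds formulated in ethanol:Cremophor EL:saline (5:5:90), vehicle alone as control, in HCT-116 subcutaneous xenografts in female Balb/c nudes (6/group, start 60–150 mm^3). Weight measured three times weekly, tumour weight at end; unpaired t-test on Mean±SEM data.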
# [2] = test system: HCT-116 colon cancer xenografts; test: Tumor growth inhibition of HCT-116 colon cancer xenografts in tumor-bearing nude mice (tumor volume, TGI %, RTV, T/C %); format: in vivo, Balb/c Nude mice; details: G10-G16 groups, single IP 400 mg/kg
# How it was run: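 Tumors in HCT-116-inoculated nude mice were sized three times weekly by diameter, with volume V=3/4π(D/2)^3. Significance set at P<0.05.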
# ICR mice = test: in vivo; details: female ICR mice; single-dose ip
# How it was run: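 MTD, the dose without mortality, body-weight loss over 10% from Day 0 or marked adverse signs, was found by stepwise up/down single intraperitoneal dosing of female SPF ICR mice. Vehicle: ethanol:Cremophor EL:saline 5:5:90. Animals weighed daily and clinically checked twice daily for up to 14 days.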
# [3] = Day 1, G10-G16 groups, single IP 400 mg/kg, Mean±SEM
# [4] = Day 2, G10-G16 groups, single IP 400 mg/kg, Mean±SEM
# [5] = Day 4, G10-G16 groups, single IP 400 mg/kg, Mean±SEM
# [6] = Day 7, G10-G16 groups, single IP 400 mg/kg, Mean±SEM
# [7] = Day 9, G10-G16 groups, single IP 400 mg/kg, Mean±SEM
# [8] = Day 11, G10-G16 groups, single IP 400 mg/kg, Mean±SEM
# [9] = Day 14, G10-G16 groups, single IP 400 mg/kg, Mean±SEM
# [10] = Day 16, G10-G16 groups, single IP 400 mg/kg, Mean±SEM
# [11] = Day 18, G10-G16 groups, single IP 400 mg/kg, Mean±SEM
# [12] = Day 21, G10-G16 groups, single IP 400 mg/kg, Mean±SEM
# [13] = Day 23, G10-G16 groups, single IP 400 mg/kg, Mean±SEM
# [14] = Day 25, G10-G16 groups, single IP 400 mg/kg, Mean±SEM
# [15] = Day 28, G10-G16 groups, single IP 400 mg/kg, Mean±SEM
# [16] = Day 30, G10-G16 groups, single IP 400 mg/kg, Mean±SEM
compound,measurement,setting,value
CCCCOC(=O)Nc1nc(=O)n(C2OC(COC(=O)COc3nc(Cl)c(Cl)cc3Cl)C(O)C2(F)F)cc1Br (stereo not shown) [Compound G16],"Weight change rate, Day 0","[1]; Day 0, G10-G16 groups, single IP 400 mg/kg",0.00%
same,"Weight of mice, Day 0","[1]; Day 0, G10-G16 groups, single IP 400 mg/kg, Mean±SEM",20.60 ± 0.23 g
same,"Weight change rate, Day 1",[1]; [3],−0.99 ± 0.59%
same,"Weight of mice, Day 1",[1]; [3],20.40 ± 0.32 g
same,"Weight change rate, Day 2",[1]; [4],−0.79 ± 0.84%
same,"Weight of mice, Day 2",[1]; [4],20.45 ± 0.30 g
same,"Weight change rate, Day 4",[1]; [5],−0.38 ± 1.13%
same,"Weight of mice, Day 4",[1]; [5],20.62 ± 0.28 g
same,"Weight change rate, Day 7",[1]; [6],−1.73 ± 0.99 %
same,"Weight of mice, Day 7",[1]; [6],20.43 ± 0.27 g
same,"Weight change rate, Day 9",[1]; [7],1.99 ± 1.71 %
same,"Weight of mice, Day 9",[1]; [7],21.03 ± 0.23 g
same,"Weight change rate, Day 11",[1]; [8],3.60 ± 1.31%
same,"Weight of mice, Day 11",[1]; [8],21.32 ± 0.26 g
same,"Weight change rate, Day 14",[1]; [9],1.54 ± 2.06 %
same,"Weight of mice, Day 14",[1]; [9],20.87 ± 0.22 g
same,"Weight change rate, Day 16",[1]; [10],2.61 ± 2.41%
same,"Weight of mice, Day 16",[1]; [10],21.02 ± 0.33 g
same,"Weight change rate, Day 18",[1]; [11],6.99 ± 2.87 %
same,"Weight of mice, Day 18",[1]; [11],21.80 ± 0.44 g
same,"Weight change rate, Day 21",[1]; [12],5.42 ± 2.41 %
same,"Weight of mice, Day 21",[1]; [12],21.55 ± 0.34 g
same,Day 22 Mortality,"[1]; Day 22, single IP dose (mg/kg)",0%
same,"Weight change rate, Day 23",[1]; [13],7.14 ± 3.88%
same,"Weight of mice, Day 23",[1]; [13],21.78 ± 0.58 g
same,"Weight change rate, Day 25",[1]; [14],7.62 ± 3.76%
same,"Weight of mice, Day 25",[1]; [14],21.83 ± 0.59 g
same,"Weight change rate, Day 28",[1]; [15],3.66 ± 3.27%
same,"Weight of mice, Day 28",[1]; [15],21.27 ± 0.43 g
same,"Weight change rate, Day 30",[1]; [16],4.94 ± 2.45%
same,"Weight of mice, Day 30",[1]; [16],21.20 ± 0.60 g
same,clinical symptoms,"[1]; after single IP dose, compared with model control group",no significant differences in clinical symptoms
same,Day 0 (RTV),[2]; Day 0,1.00
same,"Tumor volume, Day 0","[2]; Day 0, Mean±SEM",52.57 ± 10.93** mm^3
same,Day 1 (TGI %),[2]; Day 1,63.52%
same,Day 1 (RTV),"[2]; Day 1, Mean±SEM",1.25 ± 0.20
same,"Tumor volume, Day 1","[2]; Day 1, Mean±SEM",65.85 ± 18.30** mm^3
same,Day 2 (TGI %),[2]; Day 2,56.02%
same,Day 2 (RTV),"[2]; Day 2, Mean±SEM",2.10 ± 0.74
same,"Tumor volume, Day 2","[2]; Day 2, Mean±SEM",97.57 ± 24.94** mm^3
same,Day 4 (TGI %),[2]; Day 4,52.31%
same,Day 4 (RTV),"[2]; Day 4, Mean±SEM",3.10 ± 1.46
same,Day 7 (TGI %),[2]; Day 7,45.07%
same,Day 7 (RTV),"[2]; Day 7, Mean±SEM",5.12 ± 2.41
same,"Tumor volume, Day 7","[2]; Day 7, Mean±SEM",237.57 ± 74.65* mm^3
same,Day 9 (TGI %),[2]; Day 9,33.79%
same,Day 9 (RTV),"[2]; Day 9, Mean±SEM",8.09 ± 3.62
same,"Tumor volume, Day 9","[2]; Day 9, Mean±SEM",390.87 ± 115.68 mm^3
same,Day 11 (TGI %),[2]; Day 11,36.38%
same,Day 11 (RTV),"[2]; Day 11, Mean±SEM",12.66 ± 5.21
same,"Tumor volume, Day 11","[2]; Day 11, Mean±SEM",621.03 ± 173.32 mm^3
same,Day 14 (TGI %),[2]; Day 14,27.91%
same,Day 14 (RTV),"[2]; Day 14, Mean±SEM",20.81 ± 7.22
same,"Tumor volume, Day 14","[2]; Day 14, Mean±SEM",1038.23 ± 262.72 mm^3
same,Day 16 (TGI %),[2]; Day 16,27.25%
same,Day 16 (RTV),"[2]; Day 16, Mean±SEM",26.35 ± 8.64
same,"Tumor volume, Day 16","[2]; Day 16, Mean±SEM",1317.52 ± 322.74 mm^3
same,Day 18 (TGI %),[2]; Day 18,21.59%
same,Day 18 (RTV),"[2]; Day 18, Mean±SEM",31.97 ± 10.14
same,"Tumor volume, Day 18","[2]; Day 18, Mean±SEM",1566.87 ± 378.64 mm^3
same,Day 21 (TGI %),[2]; Day 21,23.19%
same,Day 21 (RTV),"[2]; Day 21, Mean±SEM",38.61 ± 9.84
same,"Tumor volume, Day 21","[2]; Day 21, Mean±SEM",1877.91 ± 388.81 mm^3
same,Day 23 (TGI %),[2]; Day 23,18.55%
same,Day 23 (RTV),"[2]; Day 23, Mean±SEM",39.81 ± 9.58
same,"Tumor volume, Day 23","[2]; Day 23, Mean±SEM",1923.55 ± 392.05 mm^3
same,Day 25 (TGI %),[2]; Day 25,18.29%
same,Day 25 (RTV),"[2]; Day 25, Mean±SEM",43.89 ± 10.29
same,"Tumor volume, Day 25","[2]; Day 25, Mean±SEM",2110.15 ± 421.51 mm^3
same,Day 28 (TGI %),[2]; Day 28,38.94%
same,Day 28 (RTV),"[2]; Day 28, Mean±SEM",39.62 ± 10.42
same,"Tumor volume, Day 28","[2]; Day 28, Mean±SEM",1642.01 ± 659.32 mm^3
same,Day 30 (TGI %),[2]; Day 30,52.84%
same,Day 30 (RTV),"[2]; Day 30, Mean±SEM",38.70 ± 10.60
same,"Tumor volume, Day 30","[2]; Day 30, Mean±SEM",1323.36 ± 626.45 mm^3
same,"dose that could be tolerated (maximum tolerated dose, MTD)",ICR mice,400 mg/kg
